Measurements: US20080269348A1, “Novel Arylbicyclo[3.1.0]Hexylamines And Methods And Compositions For Their Preparation And Use” (priority 2006, published 2008)

Assays:
[1] = biological target: T1, norepinephrine (NE) uptake (Rattus norvegicus, UniProt Q63380); test: Inhibition of [3H]NE uptake in rat hypothalamus synaptosomes; type: biochemical; conditions: 500 nM, 20 min at 37° C.
T1 construct: synaptosomal preparations were made from either whole brain (5-HT), striatum (DA) or hypothalamus (NE); from tissue; host or cells: rat hypothalamus synaptosomes
T1 sequence (Q63380 1-617): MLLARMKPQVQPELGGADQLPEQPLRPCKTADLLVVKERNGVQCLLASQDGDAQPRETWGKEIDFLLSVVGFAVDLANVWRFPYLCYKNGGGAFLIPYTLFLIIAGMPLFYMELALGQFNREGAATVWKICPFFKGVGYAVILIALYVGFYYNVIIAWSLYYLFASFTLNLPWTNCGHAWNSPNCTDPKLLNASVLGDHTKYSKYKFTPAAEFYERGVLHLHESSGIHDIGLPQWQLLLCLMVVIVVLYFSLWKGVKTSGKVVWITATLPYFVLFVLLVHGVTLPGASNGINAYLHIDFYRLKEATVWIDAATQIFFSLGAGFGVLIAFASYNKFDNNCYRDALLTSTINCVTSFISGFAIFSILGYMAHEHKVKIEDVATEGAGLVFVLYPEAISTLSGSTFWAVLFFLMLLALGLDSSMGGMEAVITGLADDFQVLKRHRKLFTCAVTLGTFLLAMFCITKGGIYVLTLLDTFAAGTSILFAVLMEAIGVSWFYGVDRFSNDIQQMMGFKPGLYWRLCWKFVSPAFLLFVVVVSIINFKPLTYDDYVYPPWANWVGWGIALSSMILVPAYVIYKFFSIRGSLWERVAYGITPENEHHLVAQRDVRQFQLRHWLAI
Method: (§1) The effects of arylbicyclo[3.1.0]hexylamines of the invention for inhibiting transport of norepinephrine (NE) and/or dopamine (DA) and/or serotonin (5-HT) were evaluated using preparations of synaptosomes from different regions of the rat brain according to previously-reported techniques.
(§2) Whole brains were obtained from normal rats, and synaptosomal preparations were made from either whole brain (5-HT), striatum (DA) or hypothalamus (NE) by gentle disruption in 10 volumes (w/v) of 0.32 M sucrose (0-4° C.) using a Teflon-glass homogenizer. The homogenate was then centrifuged at 1000×g for 10 min. The supernatant was retained and centrifuged at 23000 g for 20 min. The resulting pellet was gently resuspended in 200 volumes of 0.32 M sucrose (0-4° C.) using a teflon-glass homogenizer. Aliquots (250 μL) of this preparation were added to tubes, along with 0.2 μCi/mL of [^3H]5-HT, [^3H]DA, or [^3H]NE, 200 μL of selected 1-arylbicyclo[3.1.0]hexanamine test compounds (to yield final concentrations of 500 nM) and 1 mL of Krebs-Ringer bicarbonate buffer (pH 7.4). […] At the end of this period, the assay was terminated by rapid filtration over Whatman GF/C glass fiber filters. The filters were rinsed 3 times with 4 ml of Krebs-Ringer bicarbonate buffer (0-4° C.), and the radioactivity retained on the filters was measured by liquid scintillation spectrometry.

dopamine (DA) uptake = biological target: T2, dopamine (DA) uptake (Rattus norvegicus, UniProt P23977); test: biochemical; conditions: read-out: Uptake Inhibition % at 500 nM DA
T2 construct: synaptosomal preparations were made from either whole brain (5-HT), striatum (DA) or hypothalamus (NE); from tissue; host or cells: rat striatum synaptosomes
T2 sequence (P23977 whole entry): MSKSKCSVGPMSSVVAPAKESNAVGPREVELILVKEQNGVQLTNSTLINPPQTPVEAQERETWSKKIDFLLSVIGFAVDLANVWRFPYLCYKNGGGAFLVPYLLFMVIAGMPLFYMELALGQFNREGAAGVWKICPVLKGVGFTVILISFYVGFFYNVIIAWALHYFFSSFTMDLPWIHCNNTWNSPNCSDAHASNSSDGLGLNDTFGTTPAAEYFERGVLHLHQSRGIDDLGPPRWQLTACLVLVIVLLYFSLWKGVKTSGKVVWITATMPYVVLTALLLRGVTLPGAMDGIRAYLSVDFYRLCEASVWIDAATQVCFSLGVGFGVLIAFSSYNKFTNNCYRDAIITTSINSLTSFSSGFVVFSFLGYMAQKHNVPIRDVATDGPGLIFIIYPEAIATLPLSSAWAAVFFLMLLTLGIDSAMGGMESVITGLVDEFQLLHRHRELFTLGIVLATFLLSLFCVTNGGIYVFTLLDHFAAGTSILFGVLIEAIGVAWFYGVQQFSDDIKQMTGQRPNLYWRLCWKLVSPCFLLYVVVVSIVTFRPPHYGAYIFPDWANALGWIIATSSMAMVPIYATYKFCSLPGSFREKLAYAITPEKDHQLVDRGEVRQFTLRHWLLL
Method: as §1, §2

serotonin (5-HT) uptake = biological target: T3, serotonin (5-HT) uptake (Rattus norvegicus, UniProt P31652); test: biochemical; conditions: read-out: Uptake Inhibition % at 500 nM 5-HT
T3 construct: synaptosomal preparations were made from either whole brain (5-HT), striatum (DA) or hypothalamus (NE); from tissue; host or cells: rat whole brain synaptosomes
T3 sequence (P31652 whole entry): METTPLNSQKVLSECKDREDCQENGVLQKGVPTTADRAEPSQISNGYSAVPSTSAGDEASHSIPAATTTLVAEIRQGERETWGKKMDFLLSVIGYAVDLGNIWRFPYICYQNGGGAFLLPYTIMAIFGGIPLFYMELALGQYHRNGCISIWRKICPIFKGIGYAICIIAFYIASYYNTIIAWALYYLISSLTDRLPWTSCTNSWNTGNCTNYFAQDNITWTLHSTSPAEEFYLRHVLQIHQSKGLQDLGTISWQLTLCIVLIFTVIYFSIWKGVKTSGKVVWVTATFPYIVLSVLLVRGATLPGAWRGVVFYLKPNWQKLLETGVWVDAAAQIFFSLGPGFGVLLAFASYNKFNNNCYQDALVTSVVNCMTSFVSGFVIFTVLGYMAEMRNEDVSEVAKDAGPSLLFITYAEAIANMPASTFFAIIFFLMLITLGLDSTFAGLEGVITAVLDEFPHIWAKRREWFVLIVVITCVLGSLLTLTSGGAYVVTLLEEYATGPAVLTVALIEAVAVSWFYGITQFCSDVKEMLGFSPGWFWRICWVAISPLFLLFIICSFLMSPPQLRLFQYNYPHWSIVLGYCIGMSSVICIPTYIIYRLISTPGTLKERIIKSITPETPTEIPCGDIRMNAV
Method: as §1, §2

Compound | inhibition at 0.5 µM [1] [%] | inhibition at 0.5 µM (dopamine (DA) uptake) [%] | inhibition at 0.5 µM (serotonin (5-HT) uptake) [%]
NC1C[C@H]2C[C@]2(c2ccc(Cl)c(Cl)c2)C1 (stereo partly drawn) | 59 | 83 | 75
NC1C[C@H]2C[C@]2(c2cccc3ccccc23)C1 (stereo partly drawn) [5-p-tolylbicydo[3.1.0]hexan-2-amine] | 42 | 39 | 74
